The test system of assay [1] is HOK-16B cells. The assay can be described thus: Cell adhesion assay on coated plates (crystal violet absorbance at 570 nm / cell counting). The note with it: 1 h; for cell adhesion activity compared to the peptide P4 control / cell adhesion activity of synthetic peptides: HOK-16B cells; for cell adhesion activity compared to the peptide P4 control: 10 μg/well truncated or Ala-substituted peptide coating; for cell adhesion activity of synthetic peptides: plates coated with 10-50 μg/well peptide, serum-free medium; for cell adhesion activity of rLG proteins: HOK-16B cells on rLG protein-coated plates, compared to BSA control. The assay is classed as cell-based, human. The procedure: The cell adhesion assay was performed according to a method reported by Okazaki et al. (J. Biol. Chem., 277:37070, 2002). In detail, 24-well culture plates (Nunc, Roskilde, Denmark) were coated with various amounts of rLG proteins at 4° C. overnight. The peptides were also coated on plates by drying overnight. The substrate-coated on the plates were blocked by adding 1% heat-inactivated bovine serum albumin (BSA) in PBS for 1 h at 37° C. and washed twice with PBS. The cells in the Experimental Example 1, detached by 0.05% tyrpsin and 0.53 mM EDTA in PBS and resuspended in culture media, were added (1×10^5 cells/500 μl) to each plate and incubated for 1 h at 37° C. After incubation, unattached cells were removed by rinsing twice with PBS. The attached cells were fixed with 10% formalin in PBS for 15 min, rinsed twice with PBS, and stained with 0.5% crystal violet for 1 h. The plates were gently rinsed with DDW three times and lysed with 2% SDS for 5 min. Absorbance was measured at 570 nm in a Bio-Rad Model 550 microplate reader (BioRad).
The cell adhesion and spreading activities on peptide-coated plates were examined using HOK-16B cells by the same method as Experimental Example 2. 24-well plates were coated with 10, 20, 30, 40 and 50 μg/well peptides P1 to P5, respectively. HOK-16B cells were added to peptide-coated plates and cultured for 1 h in serum-free medium for 1 hr. After the unbound cells were washed off, adherent cells were fixed and stained with crystal violet, and then the stained cells were analyzed. Absorbance was measured at 570 nm in a microplate reader. BSA and the rLG3 were used as negative control and positive control, respectively.
It was observed that peptide P4 promotes strong cell adhesion and spreading activities and binds to integrin α3β1 in the Example 4. Therefore, to determine the biologically active core sequences in peptide P4, five synthetic peptides (P4 D-I to P4 D-V), which are C-terminal truncated peptides from the peptide P4, and six synthetic peptides (P4 D-N1 to P4 D-N6), which are N-terminal truncated peptides from the peptide P4 were prepared (FIG. 6A) and examined for HOK-16B cell adhesion and spreading activities on peptide-coated plates by the present inventors. 24-well plates were coated with 10 μg/well C-terminal truncated peptides or N-terminal truncated peptides, and HOK-16B cells were added to the plates, and then cultured in serum-free medium for 1 hr. After the unbound cells were washed off, the adherent cells were fixed to stain with crystal violet, and the stained cells were analyzed. Absorbance was measured at 570 nm in a microplate reader. Peptide P4 and BSA were used as the positive and negative controls, respectively.
24-well plates were coated with 10 μg/well peptides, and HOK-16B cells were added to the plates, and then cultured in serum-free medium for 1 hr. After the unbound cells were washed off, the adherent cells were fixed to stain with crystal violet, and the stained cells were analyzed. Peptide P4 and BSA were used as the positive and negative controls, respectively. The results were expressed as mean ±SD of the four independent experiments.

For assay [2], the system named is HOK-16B cells. The assay can be described thus: Cell spreading activity assay on coated plates. Format: cell-based, human. The note with it: for cell spreading activity compared to the peptide P4 control: HOK-16B cells, 10 μg/well truncated or Ala-substituted peptide coating, 1 h; for cell spreading activity: HOK-16B cells on rLG protein- or peptide P1-P5-coated plates. As for the experimental part:
To identify spreading cells, attached cells were fixed with 10% formalin in PBS for 15 min, rinsed twice with PBS, and stained with 0.005% crystal violet for 1 h. The plates were then gently rinsed with DDW. To ensure a representative count, each plate was divided into quarters, two fields per quarter were photographed using an Olympus BX51 microscope at 100× magnification. Cells that had adopted a flattened, polygonal shape, with filopodia-and lamellipodia-like extensions were considered to be spreading cells. In contrast, cells that resisted being washed and remained tethered to the plate surface were considered to be non-spreading cells.
To examine the adhesion activity of peptide P4 in detail, the inventors examined whether the adherent cells were tethered to the substratum or spread over the substratum. The BSA and rLG3 were used as the negative control and positive control, respectively, the percentage of cells displaying a spreading morphology was quantified by dividing the number of spreading cells by the total number of bound cells.

With “peptide P4 D-N1: peptide P4 with a deletion of one of the N-terminal two Pro residues (PFLMLLKGSTR)”, in the assay with HOK-16B cells [1], the “cell adhesion activity compared to the peptide P4 control” value was “did not show a significantly lower cell adhesion and spreading activities”. Also, the “cell spreading activity compared to the peptide P4 control” value in the assay on HOK-16B cells [2] was “did not show a significantly lower cell adhesion and spreading activities”.

On to “P2: 12-mer peptide, residues 1297-1308 of SEQ ID NO: 2 (SLKRDVSLGGCS; listed as Homo sapiens)”, for which the “cell adhesion activity of synthetic peptides” value in the assay with HOK-16B cells [1] is reported as “no adhesion activity”.

“peptide P4 D-I: peptide P4 with a deletion of the C-terminal Arg residue (PPFLMLLKGST)”: the “cell adhesion activity compared to the peptide P4 control” value in the assay on HOK-16B cells [1] is reported as “significantly lower cell adhesion activity than the peptide P4 control”.

“P3: 12-mer peptide, residues 1305-1316 of SEQ ID NO: 2 (GGCSLNKPPFLM; listed as Homo sapiens)”: the “cell adhesion activity of synthetic peptides” value with HOK-16B cells [1] is listed as “no adhesion activity”.

Turning to “peptide P4 D-N2: peptide P4 with deletions of the N-terminal two Pro residues (FLMLLKGSTR)”, the “cell adhesion activity compared to the peptide P4 control” value in the assay on HOK-16B cells [1] is “showed a significantly lower cell adhesion and spreading activities”. Also, in the assay with HOK-16B cells [2], the “cell spreading activity compared to the peptide P4 control” value was “showed a significantly lower cell adhesion and spreading activities”.

Take “peptide P1: 12-mer peptide, residues 1293-1304 of human laminin α3 chain SEQ ID NO: 2; control peptide (LTSNSLKRDVSL; listed as Homo sapiens)”: the “cell adhesion activity of synthetic peptides” value in the assay on HOK-16B cells [1] was “no adhesion activity”.

Take “peptide P4-S1: peptide P4 in which the 8th Lys of SEQ ID NO: 1 is replaced by Ala (PPFLMLLAGSTR)”: in the assay with HOK-16B cells [1], the “cell adhesion activity compared to the peptide P4 control” value is listed as “unaffected”. The “cell spreading activity compared to the peptide P4 control” value in the assay on HOK-16B cells [2] was “unaffected”.

Turning to “peptide P5: 12-mer peptide, residues 1321-1332 of SEQ ID NO: 2 (STRFNKTKTFRI; listed as Homo sapiens)”, in the assay on HOK-16B cells [1], the “cell adhesion activity of synthetic peptides” value was “very weak dose-dependent adhesion activity at concentrations ≧25 μg/well”.

B1: rLG1: recombinant His6-tagged LG1 domain, residues 782-978 of human laminin α3 chain, expressed in E. coli (protein, listed as Homo sapiens)
chain: RLPNDLEDLKGYTSLSLFLQRPNSRENGGTENMFVMYLGNKDASRDYIGMAVVDGQLTCVYNLGDREAELQVDQILTKSETKEAVMDRVKFQRIYQFARLNYTKGATSSKPETPGVYDMDGRNSNTLLNLDPENVVFYVGGYPPDFKLPSRLSFPPYKGCIELDDLNENVLSLYNFKKTFNLNTTEVEPCRRRKEES
modifications: His6 tag
notes: recombinant His6-tagged LG1 domain, residues 782-978 of human laminin α3 chain, expressed in E. coli
With B1, the “cell adhesion activity of rLG proteins” value with HOK-16B cells [1] is reported as “marginal adhesion activity”. Besides, the cell spreading activity result in the assay on HOK-16B cells [2] is “minimal cell spreading”.

B2: rLG4: recombinant His6-tagged LG4 domain, residues 1352-1555 of human laminin α3 chain (protein, listed as Homo sapiens)
chain: DACSPLPKTQANHGALQFGDIPTSHLLFKLPQELLKPRSQFAVDMQTTSSRGLVFHTGTKNSFMALYLSKGRLVFALGTDGKKLRIKSKEKCNDGKWHTVVFGHDGEKGRLVVDGLRAREGSLPGNSTISIRAPVYLGSPPSGKPKSLPTNSFVGCLKNFQLDSKPLYTPSSSFGVSSCLGGPLEKGIYFSEEGGHVVLAHSVL
modifications: His6 tag
notes: recombinant His6-tagged LG4 domain, residues 1352-1555 of human laminin α3 chain
Take B2: in the assay on HOK-16B cells [1], the “cell adhesion activity of rLG proteins” value is given as “marginal adhesion activity”. The cell spreading activity entry in the assay with HOK-16B cells [2] was “minimal cell spreading”.

B3: rLG2: recombinant His6-tagged LG2 domain, residues 959-1148 of human laminin α3 chain (protein, listed as Homo sapiens)
chain: KTFNLNTTEVEPCRRRKEESDKNYFEGTGYARVPTQPHAPIPTFGQTIQTTVDRGLLFFAENGDRFISLNIEDGKLMVRYKLNSELPKERGVGDAINNGRDHSIQIKIGKLQKRMWINVDVQNTIIDGEVFDFSTYYLGGIPIAIRERFNISTPAFRGCMKNLKKTSGVVRLNDTVGVTKKCSEDWKLVR
modifications: His6 tag
notes: recombinant His6-tagged LG2 domain, residues 959-1148 of human laminin α3 chain
Take B3: the “cell adhesion activity of rLG proteins” value in the assay on HOK-16B cells [1] is on record as “marginal adhesion activity”. For the same molecule, in the assay on HOK-16B cells [2], the cell spreading activity result is on record as “minimal cell spreading”.

B4: rLG5: recombinant His6-tagged LG5 domain, residues 1522-1713 of human laminin α3 chain (protein, listed as Homo sapiens)
chain: SSSFGVSSCLGGPLEKGIYFSEEGGHVVLAHSVLLGPEFKLVFSIRPRSLTGILIHIGSQPGKHLCVYLEAGKVTASMDSGAGGTSTSVTPKQSLCDGQWHSVAVTIKQHILHLELDTDSSYTAGQIPFPPASTQEPLHLGGAPANLTTLRIPVWKSFFGCLRNIHVNHIPVPVTEALEVQGPVSLNGCPDQ
modifications: His6 tag
notes: recombinant His6-tagged LG5 domain, residues 1522-1713 of human laminin α3 chain
As for B4, the “cell adhesion activity of rLG proteins” value in the assay on HOK-16B cells [1] was “marginal adhesion activity”. In addition, in the assay with HOK-16B cells [2], the cell spreading activity result is given as “minimal cell spreading”.

(Values after patent US7517654B2, “Peptide and a derivative thereof promoting cell adhesion and spreading” (Seoul National University Industry Foundation, priority 2004, dated 2009).)
